{"source": "PubChem BioAssay AID1963968", "about": "(Molecular Pharmacology Branch, DTP, NCI, 2024);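 also: spheroids exposed to agents for 7 days before viability read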;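 as to viability, T/C: 100% = DMSO vehicle control viability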", "test_system": "945468-187-T-J3-PDC spheroids with HUVEC/MSC, viability", "assay": "Anticancer human tumor 945468-187-T-J3-PDC patient-derived rectal carcinoma cell line growth inhibition [PI3K]", "settings": "for IC50: curve of first compound; for viability, T/C: stronger effect = lower value", "in_short": "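Viability of mixed-cell spheroids was determined after exposure to pairwise combinations, one partner being inavolisib, alpelisib, duvelisib or copanlisib. Highest tested concentration matched clinical Cmax where known and 10 microM where not, descending in half-log steps.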"}
{"smiles": "Cn1cnc2c(F)c(Nc3ccc(Br)cc3Cl)c(C(=O)NOCCO)cc21", "note": "+ COc1c(OCCCN2CCOCC2)ccc2c3n(c(=NC(=O)c4cnc(N)nc4)nc12)CCN3", "values": [{"measurement": "IC50", "setting": "second compound 0.00316 µM", "result": "> 3", "unit": "µM"}, {"measurement": "IC50", "setting": "second compound 0.01 µM", "result": 1.25, "unit": "µM"}, {"measurement": "IC50", "setting": "second compound 0.0316 µM", "result": 0.154, "unit": "µM"}, {"measurement": "IC50", "setting": "second compound 0.1 µM", "result": "< 0.00949", "unit": "µM"}, {"measurement": "IC50", "setting": "second compound 0.316 µM", "result": "< 0.00949", "unit": "µM"}, {"measurement": "IC50", "setting": "second compound 1 µM", "result": "< 0.00949", "unit": "µM"}, {"measurement": "viability, T/C", "setting": "second compound 0.00316 µM, first compound 0.00949 µM", "result": 103, "unit": "%"}, {"measurement": "viability, T/C", "setting": "second compound 0.00316 µM, first compound 0.03 µM", "result": 99.9, "unit": "%"}, {"measurement": "viability, T/C", "setting": "second compound 0.00316 µM, first compound 0.0949 µM", "result": 103, "unit": "%"}, {"measurement": "viability, T/C", "setting": "second compound 0.00316 µM, first compound 0.3 µM", "result": 91.7, "unit": "%"}, {"measurement": "viability, T/C", "setting": "second compound 0.00316 µM, first compound 0.949 µM", "result": 91.8, "unit": "%"}, {"measurement": "viability, T/C", "setting": "second compound 0.00316 µM, first compound 3 µM", "result": 68, "unit": "%"}, {"measurement": "viability, T/C", "setting": "second compound 0.01 µM, first compound 0.00949 µM", "result": 96.1, "unit": "%"}, {"measurement": "viability, T/C", "setting": "second compound 0.01 µM, first compound 0.03 µM", "result": 103, "unit": "%"}, {"measurement": "viability, T/C", "setting": "second compound 0.01 µM, first compound 0.0949 µM", "result": 89.8, "unit": "%"}, {"measurement": "viability, T/C", "setting": "second compound 0.01 µM, first compound 0.3 µM", "result": 80.7, "unit": "%"}, {"measurement": "viability, T/C", "setting": "second compound 0.01 µM, first compound 0.949 µM", "result": 56.4, "unit": "%"}, {"measurement": "viability, T/C", "setting": "second compound 0.01 µM, first compound 3 µM", "result": 29.9, "unit": "%"}, {"measurement": "viability, T/C", "setting": "second compound 0.0316 µM, first compound 0.00949 µM", "result": 93.5, "unit": "%"}, {"measurement": "viability, T/C", "setting": "second compound 0.0316 µM, first compound 0.03 µM", "result": 67.4, "unit": "%"}, {"measurement": "viability, T/C", "setting": "second compound 0.0316 µM, first compound 0.0949 µM", "result": 64.3, "unit": "%"}, {"measurement": "viability, T/C", "setting": "second compound 0.0316 µM, first compound 0.3 µM", "result": 36.4, "unit": "%"}, {"measurement": "viability, T/C", "setting": "second compound 0.0316 µM, first compound 0.949 µM", "result": 27.8, "unit": "%"}, {"measurement": "viability, T/C", "setting": "second compound 0.0316 µM, first compound 3 µM", "result": 13.7, "unit": "%"}, {"measurement": "viability, T/C", "setting": "second compound 0.1 µM, first compound 0.00949 µM", "result": 42.2, "unit": "%"}, {"measurement": "viability, T/C", "setting": "second compound 0.1 µM, first compound 0.03 µM", "result": 33.9, "unit": "%"}, {"measurement": "viability, T/C", "setting": "second compound 0.1 µM, first compound 0.0949 µM", "result": 27.4, "unit": "%"}, {"measurement": "viability, T/C", "setting": "second compound 0.1 µM, first compound 0.3 µM", "result": 14.7, "unit": "%"}, {"measurement": "viability, T/C", "setting": "second compound 0.1 µM, first compound 0.949 µM", "result": 9.64, "unit": "%"}, {"measurement": "viability, T/C", "setting": "second compound 0.1 µM, first compound 3 µM", "result": 3.84, "unit": "%"}, {"measurement": "viability, T/C", "setting": "second compound 0.316 µM, first compound 0.00949 µM", "result": 17.5, "unit": "%"}, {"measurement": "viability, T/C", "setting": "second compound 0.316 µM, first compound 0.03 µM", "result": 18.3, "unit": "%"}, {"measurement": "viability, T/C", "setting": "second compound 0.316 µM, first compound 0.0949 µM", "result": 10, "unit": "%"}, {"measurement": "viability, T/C", "setting": "second compound 0.316 µM, first compound 0.3 µM", "result": 8.2, "unit": "%"}, {"measurement": "viability, T/C", "setting": "second compound 0.316 µM, first compound 0.949 µM", "result": 3.92, "unit": "%"}, {"measurement": "viability, T/C", "setting": "second compound 0.316 µM, first compound 3 µM", "result": 1.13, "unit": "%"}, {"measurement": "viability, T/C", "setting": "second compound 1 µM, first compound 0.00949 µM", "result": 13.6, "unit": "%"}, {"measurement": "viability, T/C", "setting": "second compound 1 µM, first compound 0.03 µM", "result": 8.89, "unit": "%"}, {"measurement": "viability, T/C", "setting": "second compound 1 µM, first compound 0.0949 µM", "result": 7.97, "unit": "%"}, {"measurement": "viability, T/C", "setting": "second compound 1 µM, first compound 0.3 µM", "result": 4.92, "unit": "%"}, {"measurement": "viability, T/C", "setting": "second compound 1 µM, first compound 0.949 µM", "result": 4.14, "unit": "%"}, {"measurement": "viability, T/C", "setting": "second compound 1 µM, first compound 3 µM", "result": 1.82, "unit": "%"}]}
